Data taken from patent publication US7769423B2 (Duke University, priority 2002, dated 2010).

Columns and labels:
[1] = at physiological temperatures; Unger 1993; cited from earlier work
[2] = cited from earlier work
[3] = system: fibrosarcomas implanted in the flank of Fisher 344 rats; assay: In vivo MRI signal enhancement and signal intensity ratio (SIR) in rats bearing flank fibrosarcomas, catheter hyperthermia
Description: Fibrosarcocomas were transplanted in the flank of fisher 344 rats and allowed to grow to 17-19 mm in diameter. Rats were anesthetized with pentobarbital (source/amount) and a 16 gauge catheter was placed through the center of the tumor. Heated water (56° C., 1.8 ml/s) was passed through the catheter to provided hyperthermia. During MRI scans, the heating water was doped with 0.25 M MnSO4 to prevent flow image artifacts. Gradient recalled echo was used with a Tr of 23 ms, Te of 1.4 ms, and flip angles of 5, 15, 30, 40, 50, 60 degrees for the initial T1 weighted image. Subsequent drug uptake scans were performed at a flip angle of 33°. 3D volume images, 12 slices 1 mm thick, were taken with a field of view of 6 cm with a pixel size of 234×234 μm. Four and signal image averaging was used for liposome and Gd-DTPA experiments yielding scan times of 1 min, 45 sec and 30 sec respectively.
1NEX image averaging was used for the first twenty minutes of liposome or Gd uptake. Subsequent images were taken at 4NEX for the remainder of the experiment (90-120 minutes).
The liposome formulations were studied in fibrosarcomas implanted in the flank of Fisher 344 rats. The center of the tumor was heated using a catheter through which hot was water circulated. […] Liposomes were then administered intravenously, followed by MR imaging.
In vivo drug relative concentrations were performed by signal intensity image analysis over regions of interest (ROI) within heated tumors. The white boxes present in FIGS. 2A, 2B and 2C indicate these ROIs. […] Muscle in the non-tumor bearing leg of the animal was used as a non-heated, normal tissue control.

[4] = In vitro MRI T1 relaxivity measurements as a function of temperature and concentration; type: physicochemical; details: linear regression, in vitro samples, 2-T magnet
Description: Three control stock solutions of manganese sulfate (MnSO4.H2O), free DOX and MnSO4.H2O in a molar ratio of 0.902:1 (DOX:Mn), and MnSO4.H2O with thermally sensitive liposomes that were formed without the presence of MnSO4.H2O. These solutions, along with liposome solutions, were then diluted to concentrations from 0.25-8 mM. The solutions were placed in […] NMR tubes cut to a three-inch length.
All MRI experiments were performed at the Center for In vivo Microscopy at Duke University in a 2-T 30-cm bore diameter magnet (Signa, G.E. Medical Systems, Milwaukee, Wis.). […] Each experiment had six to eight sample tubes, which were contained within an exposed sample holder, and placed inside a 3.81 cm birdcage coil providing RF excitation. […]
Images that were obtained were analyzed by selecting a region of interest and measuring average intensity for each sample dilution. […]
To quantify the concentration of drug in vivo using MRI, in vitro experiments were performed to determine the concentration- and temperature-dependence of T1 shortening. These experiments measured signal intensity resulting from proton spin realignment to the bulk magnetic field after excitation from repetitive radio frequency pulses. […] MnSO4 liposome-DOX formulation measured over a range of drug concentrations (T=29.9° C.). […]

fibrosarcoma (FSA-1) = assay: Antitumor effect: time for tumors to reach five times the volume on the day of treatment; type: in vivo, rat
Description: Tumor model. […] The fibrosarcoma was transplanted subcutaneously in the flanks of 8-week-old female Fischer 344 rats (Charles River Laboratories, Wilmington, Mass., U.S.A.) under anesthesia using intraperitoneal ketamine (9 mg/kg body weight) and xylazine (10 mg/kg body weight). Tumors were allowed to grow for approximately 2 weeks to a diameter of 10-12 mm before treatment.
Each group of rats (except the control group) received an equivalent dose of 5 mg doxorubicin/kg body weight by intravenous injection and/or 1 hour of hyperthermia. Local hyperthermia was delivered by means of an 18-gauge catheter that was placed through the center of the tumor and through which heated water (˜50° C., 1.8 mL/s) was passed.
The remaining 6-7 rats in each treatment group were included in the survival analysis. […] Final images were taken after tumors cooled to room temperature. […] After therapy, the rats were monitored as they recovered from anesthesia. Tumor volumes were measured three times per week for 60 days or until the tumor volume reached five times the volume on the day of treatment. At these endpoints, the rats were killed by carbon dioxide asphyxiation. […] The five-times-the-initial-volume cutpoint was chosen based on guidelines from the institutional animal care and use committee. No rats were killed before the specified endpoints were reached.
Descriptive summary statistics are expressed as mean values with 95% confidence intervals, except for the time-to-five-times-tumor-volume data, which are expressed as median values with 95% confidence intervals. To avoid assuming a normal distribution, nonparametric or semi-parametric statistical methods were used. Group comparisons were conducted with the Kruskal-Wallis test for more than two groups and the Wilcoxon test for between-group differences. For the antitumor efficacy data, the primary endpoint (time to reach five times the original tumor volume) was analyzed by the Kaplan-Meier product-limit method, using the Wilcoxon rank test for between-group differences. […]

In the case of `O=C([O-])CN(CCN(CC(=O)[O-])CC(=O)[O-])CCN(CC(=O)[O-])CC(=O)[O-].[Gd+3]` [Gd-DTPA], the relaxivity [1] is listed as “approximately 44.5 (mM·sec·° C.)^−1”, the “fraction excreted in urine” value ([2]; in about 6 hours) is listed as 83%±14% and the mean elimination half-life ([2]; in vivo) is listed as “about 0.2±0.13 hours”. For the same compound, the “time to reach SIR plateau in tumor-enhancing region” value ([3]; enhanced tumor region) was ≤ 10 min, the “femoral vessel SIR value reached” value ([3]; femoral vein, normalized to non-heated muscle) was 2.0 and the “time at which femoral vessel SIR value was reached” value ([3]; femoral vein, post injection) was 10 min. For the same compound, the “MR signal enhancement pattern” value ([3]; without hyperthermia (HT)) was “Enhancement occurs in all tissues with a high degree of non-uniformity in the tumor”.

With `O=S(=O)([O-])[O-].[Mn+2]` [MnSO4, manganese sulfate] the “intercept of relaxivity as a function of temperature (intercept±S.E.)” value [4] was 7.28 ± 0.12 mM/s and the “slope of relaxivity as a function of temperature (slope±S.E.)” value [4] was −0.082±0.003 (mM·sec·° C.)^−1.

With `COc1cccc2c1C(=O)c1c(O)c3c(c(O)c1C2=O)C[C@@](O)(C(=O)CO)C[C@@H]3O[C@H]1C[C@H](N)[C@H](O)[C@H](C)O1` [free doxorubicin, doxorubicin] the “tumor growth time / growth delay” value (fibrosarcoma (FSA-1); alone, without hyperthermia) was “statistically significantly longer tumor growth times than the saline control”, the “complete tumor regression upon censoring at 60 days” value (fibrosarcoma (FSA-1); during / plus hyperthermia) was “one of the six rats” and the “tumor growth time / growth delay” value (fibrosarcoma (FSA-1); with hyperthermia) was “statistically significantly longer tumor growth times than the saline control”.
